Activity calls are given as the source filed them.
Assays:
[1] = target: T1, Protein disulfide-isomerase (Homo sapiens, UniProt P07237); assay: inhibition of PDI-driven insulin aggregation – biochemical, turbidity, absorbance, cherry-picked samples, dose response (AID 602350); format: functional
[2] = target: T1, Protein disulfide-isomerase; assay: inhibition of PDI-mediated insulin reduction – biochemical, turbidity, absorbance, cherry-picked samples, set 2, dose response (AID 624274); format: functional
Mu-type opioid receptor = Mu-type opioid receptor (Homo sapiens, UniProt P35372); format: functional, cell-based;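 further: U2OS cells with beta-arrestin recruitment to OPRM1 by beta-gal complementation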
Chain of Mu-type opioid receptor (P35372 whole entry): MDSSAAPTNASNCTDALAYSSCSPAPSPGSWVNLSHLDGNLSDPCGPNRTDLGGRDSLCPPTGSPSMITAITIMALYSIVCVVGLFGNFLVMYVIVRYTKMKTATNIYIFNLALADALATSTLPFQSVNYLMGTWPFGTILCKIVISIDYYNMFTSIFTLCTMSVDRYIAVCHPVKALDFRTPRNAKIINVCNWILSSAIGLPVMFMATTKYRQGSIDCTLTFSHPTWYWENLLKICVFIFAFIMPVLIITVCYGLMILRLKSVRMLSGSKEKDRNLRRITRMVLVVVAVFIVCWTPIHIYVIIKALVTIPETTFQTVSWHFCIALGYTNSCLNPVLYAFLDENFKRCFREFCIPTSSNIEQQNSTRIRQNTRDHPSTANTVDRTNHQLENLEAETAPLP

[3] = target: 5-hydroxytryptamine receptor 2A (Mus musculus, UniProt P35363); format: functional, cell-based;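 further: CHO-K1 cells with tagged receptor and beta-arrestin; agonist potency measured as compound-induced activation of the receptor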
Chain of 5-hydroxytryptamine receptor 2A (P35363 whole entry): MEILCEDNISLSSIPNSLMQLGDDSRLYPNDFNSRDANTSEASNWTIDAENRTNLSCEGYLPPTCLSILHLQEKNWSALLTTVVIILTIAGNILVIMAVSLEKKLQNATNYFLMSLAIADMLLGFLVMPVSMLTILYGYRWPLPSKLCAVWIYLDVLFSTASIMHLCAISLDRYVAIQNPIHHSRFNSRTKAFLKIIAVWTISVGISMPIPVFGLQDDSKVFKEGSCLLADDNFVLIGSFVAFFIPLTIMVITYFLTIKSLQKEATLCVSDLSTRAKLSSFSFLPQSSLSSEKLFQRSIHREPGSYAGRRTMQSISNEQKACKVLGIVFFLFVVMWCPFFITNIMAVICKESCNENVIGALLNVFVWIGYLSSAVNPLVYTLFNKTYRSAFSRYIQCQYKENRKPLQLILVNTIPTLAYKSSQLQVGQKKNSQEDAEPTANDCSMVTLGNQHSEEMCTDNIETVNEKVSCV

[4] = target: Long-chain-fatty-acid--AMP ligase FadD28 (Mycobacterium tuberculosis, UniProt P9WQ59); assay: Fluorescence polarization aasay to screen for inhibitors that compete for the binding of FadD28 to a bisubstrate Measured in Biochemical System Using Plate Reader - 2147-01_Inhibitor_Dose_CherryPick_Activity.; format: functional, Mycobacterium tuberculosis H37Rv
Chain of Long-chain-fatty-acid--AMP ligase FadD28 (P9WQ59 whole entry): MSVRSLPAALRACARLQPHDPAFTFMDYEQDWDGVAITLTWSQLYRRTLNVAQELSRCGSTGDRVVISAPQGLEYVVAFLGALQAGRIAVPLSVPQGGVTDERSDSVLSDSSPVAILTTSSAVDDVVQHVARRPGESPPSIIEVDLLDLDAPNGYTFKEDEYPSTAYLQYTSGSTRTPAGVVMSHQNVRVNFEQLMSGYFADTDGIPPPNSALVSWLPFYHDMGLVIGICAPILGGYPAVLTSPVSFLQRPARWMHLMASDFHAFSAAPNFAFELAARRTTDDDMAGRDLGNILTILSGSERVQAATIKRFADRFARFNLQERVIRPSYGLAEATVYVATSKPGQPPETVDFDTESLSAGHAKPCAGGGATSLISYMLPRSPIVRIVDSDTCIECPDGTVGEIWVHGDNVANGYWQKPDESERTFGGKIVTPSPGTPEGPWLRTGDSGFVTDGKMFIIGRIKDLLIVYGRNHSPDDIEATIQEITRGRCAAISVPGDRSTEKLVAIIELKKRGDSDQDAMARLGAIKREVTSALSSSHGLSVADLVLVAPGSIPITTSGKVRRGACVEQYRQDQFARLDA

[5] = target: ATP-dependent translocase ABCB1 (Homo sapiens, UniProt P08183); assay: inhibition of BCRP-mediated JC-1 efflux – Ig-MXP3 cells, flow cytometry, set 2, dose response (AID 504566); format: functional; details: read-out: EC50_MICROM_;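 further: flow cytometry median green fluorescence of retained JC-1 dye; potency of efflux pump inhibition measured as rising substrate retention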
Chain of ATP-dependent translocase ABCB1 (P08183 whole entry): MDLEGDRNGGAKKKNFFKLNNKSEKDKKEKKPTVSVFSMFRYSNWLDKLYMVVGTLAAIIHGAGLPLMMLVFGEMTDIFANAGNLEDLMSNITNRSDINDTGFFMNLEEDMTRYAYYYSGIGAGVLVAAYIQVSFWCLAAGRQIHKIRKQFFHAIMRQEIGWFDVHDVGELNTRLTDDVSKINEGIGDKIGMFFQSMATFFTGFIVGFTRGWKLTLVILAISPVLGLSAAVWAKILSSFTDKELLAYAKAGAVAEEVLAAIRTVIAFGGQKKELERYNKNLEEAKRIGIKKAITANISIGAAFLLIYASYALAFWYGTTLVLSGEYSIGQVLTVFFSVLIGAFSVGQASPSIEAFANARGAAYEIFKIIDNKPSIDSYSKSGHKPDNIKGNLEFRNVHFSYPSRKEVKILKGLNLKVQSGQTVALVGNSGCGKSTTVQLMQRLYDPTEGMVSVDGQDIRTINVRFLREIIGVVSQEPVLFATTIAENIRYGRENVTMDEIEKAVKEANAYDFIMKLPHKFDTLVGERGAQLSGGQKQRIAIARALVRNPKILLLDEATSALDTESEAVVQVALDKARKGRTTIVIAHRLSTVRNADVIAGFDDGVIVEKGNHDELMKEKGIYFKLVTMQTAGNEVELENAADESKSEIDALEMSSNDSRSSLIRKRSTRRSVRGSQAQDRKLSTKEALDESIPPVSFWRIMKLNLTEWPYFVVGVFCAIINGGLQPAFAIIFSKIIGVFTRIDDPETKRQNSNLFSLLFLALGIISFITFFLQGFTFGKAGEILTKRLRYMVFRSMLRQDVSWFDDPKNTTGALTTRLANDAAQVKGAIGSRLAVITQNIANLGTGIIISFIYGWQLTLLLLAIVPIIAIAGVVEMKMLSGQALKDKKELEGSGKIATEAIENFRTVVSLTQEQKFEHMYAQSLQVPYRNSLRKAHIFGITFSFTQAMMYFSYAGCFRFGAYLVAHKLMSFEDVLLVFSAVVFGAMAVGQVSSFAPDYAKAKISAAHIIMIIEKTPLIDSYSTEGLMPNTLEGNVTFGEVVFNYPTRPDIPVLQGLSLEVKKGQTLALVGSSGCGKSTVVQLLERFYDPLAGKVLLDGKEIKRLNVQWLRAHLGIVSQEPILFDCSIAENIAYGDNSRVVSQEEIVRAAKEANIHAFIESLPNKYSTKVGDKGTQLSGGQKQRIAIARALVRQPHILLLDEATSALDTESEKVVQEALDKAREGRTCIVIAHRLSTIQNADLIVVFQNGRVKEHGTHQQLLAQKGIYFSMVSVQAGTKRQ

H9c2 = assay: cells; format: functional, cell-based; details: Rattus norvegicus, H9c2, Myocardium;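 further: confirmatory concentration-response retest of ultra-high-throughput screening hits for modulation of myocardial damage; cell death induced by hydrogen peroxide oxidative stress; compound pretreatment for 60 min then peroxide exposure for 2 h; potency is for protecting the cells against peroxide damage rather than for killing them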
[6] = target: Nuclear receptor subfamily 5 group A member 2 (Homo sapiens, UniProt O00482); format: functional, cell-based;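 further: HEK293T cells transfected with LRH-1 and a StAR promoter luciferase reporter; potency for inhibitors that lower LRH-1 driven reporter light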
Chain of Nuclear receptor subfamily 5 group A member 2 (O00482 whole entry): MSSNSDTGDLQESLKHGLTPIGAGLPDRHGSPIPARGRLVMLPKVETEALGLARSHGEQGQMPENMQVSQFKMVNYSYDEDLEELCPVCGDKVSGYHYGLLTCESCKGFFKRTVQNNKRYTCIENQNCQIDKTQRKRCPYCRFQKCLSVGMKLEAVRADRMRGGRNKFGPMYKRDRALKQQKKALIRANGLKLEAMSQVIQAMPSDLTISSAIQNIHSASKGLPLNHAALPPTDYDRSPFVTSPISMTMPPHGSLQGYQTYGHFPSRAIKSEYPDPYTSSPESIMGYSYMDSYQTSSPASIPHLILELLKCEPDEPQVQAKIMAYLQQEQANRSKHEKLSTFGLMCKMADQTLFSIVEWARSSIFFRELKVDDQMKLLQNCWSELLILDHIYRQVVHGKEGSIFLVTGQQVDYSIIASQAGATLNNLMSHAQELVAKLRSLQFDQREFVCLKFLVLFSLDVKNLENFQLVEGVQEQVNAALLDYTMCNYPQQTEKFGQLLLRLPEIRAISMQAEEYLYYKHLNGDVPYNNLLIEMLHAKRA

Steroidogenic factor 1 = Steroidogenic factor 1 (Homo sapiens, UniProt Q13285); assay: Counterscreen for inverse agonists of the liver receptor homolog-1 (LRH-1; NR5A2): Luminescence-based cell-based high throughput dose response assay to identify inverse agonists of the Steroidogenic Factor 1 Nuclear Receptor (SF1; NR5A1).; format: functional
Chain of Steroidogenic factor 1 (Q13285 whole entry): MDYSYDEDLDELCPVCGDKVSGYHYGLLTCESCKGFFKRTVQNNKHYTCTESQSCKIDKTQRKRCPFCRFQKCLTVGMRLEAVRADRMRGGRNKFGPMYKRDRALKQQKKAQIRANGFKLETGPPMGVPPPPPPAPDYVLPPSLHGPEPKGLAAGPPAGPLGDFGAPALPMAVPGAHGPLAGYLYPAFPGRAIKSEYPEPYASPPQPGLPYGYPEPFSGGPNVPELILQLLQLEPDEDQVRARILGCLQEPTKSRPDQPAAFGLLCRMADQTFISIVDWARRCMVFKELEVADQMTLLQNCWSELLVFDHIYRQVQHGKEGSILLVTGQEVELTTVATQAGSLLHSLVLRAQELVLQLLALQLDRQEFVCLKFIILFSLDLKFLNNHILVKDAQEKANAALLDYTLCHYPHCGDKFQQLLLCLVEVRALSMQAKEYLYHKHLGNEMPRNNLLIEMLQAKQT

[7] = nonselective StAR promoter luciferase inhibitors – cell-based, luminescence, luciferase reporter, counter-screen for LRH-1 inverse agonist project, dose response (AID 651969); format: functional
[8] = A Cell-Based Confirmatory Screen for Compounds that Inhibit VEEV, TC-83 (8).; format: functional
[9] = T. cruzi growth inhibition in host cells, dose response, cell-based, plate reader, dry powder, set 2 (AID 652275); format: functional
[10] = inhibitors of TRPM1-promoter reporter in SK-MEL-5 – cell-based, luciferase, dry powder, set 8, MITF inhibitor project, dose response (AID 624430); format: functional
[11] = MITF: Counter assay: A375 proliferation Measured in Cell-Based System Using Plate Reader - 2084-03_Inhibitor_Dose_DryPowder_Activity_Set8.; format: functional; details: A-375
[12] = MITF Orthogonal Assay: SK-MEL-5 CTG Assay Measured in Cell-Based System Using Plate Reader - 2084-02_Inhibitor_Dose_DryPowder_Activity_Set7.; format: functional
[13] = Vero E6 cell cytotoxicity, dose response, cytotoxicity control for non-replicating M. tuberculosis project, secondary assay (AID 492998); format: functional, VeroE6; details: Vero C1008
[14] = THP-1 cell cytotoxicity, dose response, cytotoxicity control for non-replicating M. tuberculosis project (AID 489025); format: functional
cells = format: functional
[15] = HepG2 cell cytotoxicity, dose response, cytotoxicity control for non-replicating M. tuberculosis project (AID 489018); format: functional; details: Mycobacterium tuberculosis
fMet-Leu-Phe receptor = fMet-Leu-Phe receptor (Homo sapiens, UniProt P21462); assay: formyl peptide receptor binders – dose response (AID 519); format: functional
Chain of fMet-Leu-Phe receptor (P21462 whole entry): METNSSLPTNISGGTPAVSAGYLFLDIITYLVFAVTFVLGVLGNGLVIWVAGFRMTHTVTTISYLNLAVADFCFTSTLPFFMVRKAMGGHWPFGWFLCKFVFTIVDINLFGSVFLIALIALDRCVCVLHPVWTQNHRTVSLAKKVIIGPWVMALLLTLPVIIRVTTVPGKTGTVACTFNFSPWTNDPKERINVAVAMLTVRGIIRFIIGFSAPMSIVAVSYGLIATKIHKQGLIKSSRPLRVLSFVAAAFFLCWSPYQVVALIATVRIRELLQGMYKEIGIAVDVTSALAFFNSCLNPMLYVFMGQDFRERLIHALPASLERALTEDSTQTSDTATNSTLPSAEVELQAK

T1 sequence (P07237 whole entry): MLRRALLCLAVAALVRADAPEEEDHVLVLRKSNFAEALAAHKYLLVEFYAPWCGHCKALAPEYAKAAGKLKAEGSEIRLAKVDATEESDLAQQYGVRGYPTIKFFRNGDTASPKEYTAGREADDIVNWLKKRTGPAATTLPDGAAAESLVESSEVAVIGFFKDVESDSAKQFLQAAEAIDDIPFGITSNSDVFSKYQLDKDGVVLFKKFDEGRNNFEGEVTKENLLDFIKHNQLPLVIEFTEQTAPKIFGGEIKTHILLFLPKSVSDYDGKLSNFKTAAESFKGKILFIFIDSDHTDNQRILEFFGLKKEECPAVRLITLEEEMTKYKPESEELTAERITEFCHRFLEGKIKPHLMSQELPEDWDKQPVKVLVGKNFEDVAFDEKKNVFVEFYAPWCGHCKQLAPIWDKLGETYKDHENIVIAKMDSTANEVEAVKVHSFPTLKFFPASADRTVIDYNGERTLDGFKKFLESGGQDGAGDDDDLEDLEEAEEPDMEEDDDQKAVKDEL

CC(C)N(C)C(=O)CCc1nnc(CCc2c[nH]c3ccccc23)o1
AC50 [1]: < 0.009 µM (active) | AC50 [2]: 0.009 µM (active)

CCOc1cc(CN2CCN(C(=O)c3ccco3)CC2)ccc1OC
EC50 (Mu-type opioid receptor): 92.5 µM (inactive) | EC50 [3]: 5.88 µM (active)

Cc1ccc(NC(S)=NNc2ccc(C(=O)O)cc2[N+](=O)[O-])cc1C
AC50 [4]: > 100 µM (inactive)

COc1ccc(-c2cc3nc(C)cc(N4CCN(C(=O)c5ccoc5)CC4)n3n2)cc1
EC50 [5]: 6.12 µM (active) | IC50 (H9c2): 27.3 µM (active)

COc1cccc(-c2cnc3c(NC(C)=O)cc(-c4ccc(S(C)(=O)=O)cc4)cn23)c1
IC50 [6]: 9.25 µM (active) | IC50 (Steroidogenic factor 1): 4.62 µM (active) | IC50 [7]: 23.5 µM (inactive)

CCN1CCN(Cc2nc3ncc([N+](=O)[O-])cc3c(=O)n2-c2ccccc2)CC1
IC50 [8]: 0.832 µM (active)

CC(C)N1C[C@@H](CN(C)Cc2ccc(Cl)cc2)Oc2c(NC(=O)c3ccnnc3)cccc2C1=O
AC50 [9]: 0.198 µM (active)

CCN1CCN(C2=C(Nc3ccc(F)cc3)C(=O)c3ccccc3C2=O)CC1
AC50 [10]: 3.49 µM (active) | AC50 [11]: > 70 µM (inactive) | AC50 [12]: 11.9 µM (active)

Cc1nn2c(=O)c3c([nH]c2c1-c1ccc(Cl)cc1)CCC3
CC50 [13]: 14.1 µM (active) | CC50 [14]: 11.2 µM (active) | IC50 (cells): 10.3 µM (active) | CC50 [15]: 14.9 µM (active) | Ki (fMet-Leu-Phe receptor): 14.1 µM (active)
